What was measured:
UGT1A6 = biological target: T1, UGT1A6 (Homo sapiens, UniProt P19224); assay: Inhibition of recombinant UGT1A6 activity (4-MU glucuronidation)
T1 sequence (P19224 27-532): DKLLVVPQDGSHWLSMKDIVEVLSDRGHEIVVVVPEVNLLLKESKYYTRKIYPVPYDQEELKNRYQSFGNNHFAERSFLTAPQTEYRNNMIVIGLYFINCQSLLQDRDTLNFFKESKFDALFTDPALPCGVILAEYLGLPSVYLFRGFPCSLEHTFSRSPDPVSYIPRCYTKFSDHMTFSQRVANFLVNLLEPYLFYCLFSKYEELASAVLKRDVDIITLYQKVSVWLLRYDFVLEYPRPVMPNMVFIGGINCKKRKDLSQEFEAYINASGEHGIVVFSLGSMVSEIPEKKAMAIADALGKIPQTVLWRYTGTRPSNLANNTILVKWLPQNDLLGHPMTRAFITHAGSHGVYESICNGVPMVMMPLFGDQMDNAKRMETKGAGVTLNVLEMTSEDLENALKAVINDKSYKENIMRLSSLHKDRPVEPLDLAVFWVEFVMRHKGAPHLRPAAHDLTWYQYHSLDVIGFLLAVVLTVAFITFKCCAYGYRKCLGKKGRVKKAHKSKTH
Protocol: (§1) A panel of recombinant human UGT supersomes (UGT1A1, UGT1A3, UGT1A4, UGT1A6, UGT1A7, UGT1A8, UGT1A9, UGT1A10, UGT2B4, UGT2B7, UGT2B15, and UGT2B17) expressed in baculovirus-infected insect cells were purchased from BD Gentest Corp. (Woburn, MA, USA).
(§2) 4-MU, a nonselective substrate of UGTs, was used as probe substrate for all UGTs except UGT1A4. Incubations with each individual enzyme were conducted using conditions previously described. There was a 5 min preincubation step at 37°C before the reaction was started by addition of UDPGA. The incubation mixtures were then centrifuged at 20,500 ×g for 15 min to obtain the supernatant. Aliquots (20 μL) were then analyzed by HPLC. The HPLC system (SHIMADZU, Kyoto, Japan) consisted of an SCL-10A system controller, two LC-10AT pumps, a SIL-10A auto injector, and a SPD-10AVP UV detector. Chromatographic separation was achieved using a Kromasil ODS column (4.6 × 150 mm I.D., 5 μm particle size) at a flow rate of 1 mL/min and UV detection at 316 nm. The mobile phase consisted of 10 mM KH2PO4, pH 2.7 (A) and acetonitrile (B). The following gradient was applied at a flow rate of 1 mL/min: 0–4 min 80% A and 20% B, 4.1–8 min 50% A and 50% B, 8.1–12 min, 30% A and 70% B. All experiments were performed in two independent experiments in duplicate.
(§3) A typical incubation mixture contained recombinant human UGTs, 5 mM MgCl2, 5 mM UDPGA, 50 μg/mg protein alamethicin, 50 mM Tris-HCl buffer (pH 7.4), and various probe substrates of UGTs in the absence or presence of different concentrations of inhibitors. […] The final concentration of DMSO in the incubation system was 1% (v/v). […]
(§4) Inhibition data from experiments were graphically represented by Dixon plots. K i values were calculated by nonlinear regression using the equations for competitive inhibition (1), noncompetitive inhibition (2), or mixed inhibition (3), [22] […] The type of inhibition was determined from the enzyme inhibition models. Goodness of fit to kinetic and inhibition models was assessed from the F statistic, r ^2 values, parameter standard error estimates, and 95% confidence intervals. […]

UGT1A8 = biological target: T2, UGT1A8 (Homo sapiens, UniProt Q9HAW9); assay: Inhibition of recombinant UGT1A8 activity (4-MU glucuronidation)
T2 sequence (Q9HAW9 26-530): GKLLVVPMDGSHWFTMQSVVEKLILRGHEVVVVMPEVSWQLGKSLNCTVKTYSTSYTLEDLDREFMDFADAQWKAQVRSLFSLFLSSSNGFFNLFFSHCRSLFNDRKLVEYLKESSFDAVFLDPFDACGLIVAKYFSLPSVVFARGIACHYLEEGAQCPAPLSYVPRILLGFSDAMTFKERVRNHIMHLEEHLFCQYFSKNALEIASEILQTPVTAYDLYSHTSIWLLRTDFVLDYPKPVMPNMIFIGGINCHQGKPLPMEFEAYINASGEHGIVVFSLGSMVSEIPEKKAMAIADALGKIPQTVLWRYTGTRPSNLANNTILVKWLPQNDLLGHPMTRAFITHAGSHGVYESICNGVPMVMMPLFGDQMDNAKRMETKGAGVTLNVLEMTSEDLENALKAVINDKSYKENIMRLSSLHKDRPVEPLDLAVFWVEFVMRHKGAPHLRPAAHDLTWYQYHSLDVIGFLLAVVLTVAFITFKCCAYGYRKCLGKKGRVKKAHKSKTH
Protocol: as §1, §2, §3, §4

[1] = Calculation of possible maximum concentrations in blood; parameters: species or system human; conditions: calculated, after a single oral administration of Epimedium pubescens decoction

SMILES: COc1ccc(-c2oc3c(CC=C(C)C)c(O)cc(O)c3c(=O)c2O)cc1 [Icaritin]
- IC50 (UGT1A6): > 100 µM
- IC50 (UGT1A8): > 100 µM
- Possible maximum concentration in human blood [1]: ~1.5 nM

SMILES: COc1ccc(-c2oc3c(CC=C(C)C)c(O[C@@H]4O[C@H](CO)[C@@H](O)[C@H](O)[C@H]4O)cc(O)c3c(=O)c2O)cc1 [Icariside I]
- IC50 (UGT1A6): > 100 µM
- IC50 (UGT1A8): > 100 µM
- Possible maximum concentration in human blood [1]: ~0.1 nM

SMILES: COc1ccc(-c2oc3c(CC=C(C)C)c(O[C@@H]4O[C@H](CO)[C@@H](O)[C@H](O)[C@H]4O)cc(O)c3c(=O)c2O[C@@H]2O[C@@H](C)[C@H](O)[C@@H](O)[C@H]2O)cc1 [Icariin]
- IC50 (UGT1A6): > 100 µM
- IC50 (UGT1A8): > 100 µM
- Possible maximum concentration in human blood [1]: about 1.3 nM
